The text below walks through data of US5604234A, “Substituted thiol macrolactam immunomodulators” (Abbott Laboratories, priority 1995, dated 1997).

As usually defined, the IC50 is the concentration needed to halve the response being measured. The low end stands for greater potency, the high end for weaker potency.

The test system of this assay is human mixed lymphocyte reaction (MLR). The assay is described as follows: human mixed lymphocyte reaction (MLR), serum free variation. Format: cell-based. The following applies: serum-free medium AIM V, Table 3. How it is done:
In vitro Assay of Biological Activity (Serum Free MLR)
The in viitro immunosuppressant activity of the compounds of the present invention can also be determined using a variation of the human mixed lymphocyte reaction (MLR) assay described by Kino, T. et al. in Transplantation Proceedings, XIX(5):36-39, Suppl. 6 (1987). In this assay, the cell culture was performed in a serum-free medium, AIM V (GibcoBRL Life Technologies, Grand Island, N.Y.), instead of the usual RPMI 1640 plus 10% heat-inactivated fetal bovine serum medium. The final cell concentrations of the responder and stimulator peripheral blood mononuclear cells were, respectively, 5×10^5/mL and 2×10^6/mL of cells pooled from four donors.

Molecule `CC[C@@H]1/C=C(\C)C[C@H](C)C[C@H](OC)[C@H]2O[C@@](O)(C(=O)C(=O)N3CCCC[C@H]3C(=O)O[C@H](/C(C)=C/[C@@H]3CC[C@H]([S+]([O-])CC(=O)OCc4ccccc4)[C@H](OC)C3)[C@H](C)[C@@H](O)CC1=O)[C@H](C)C[C@@H]2OC` (single isomer, unassigned) [Example 54] gave a half-inhibitory concentration (IC50) (Homo sapiens, Lymphocyte) of 8.7 nM.

Take `CC[C@@H]1/C=C(\C)C[C@H](C)C[C@H](OC)[C@H]2O[C@@](O)(C(=O)C(=O)N3CCCC[C@H]3C(=O)O[C@H](/C(C)=C/[C@@H]3CC[C@H]([S+]([O-])CCC(=O)OCc4ccccc4)[C@H](OC)C3)[C@H](C)[C@@H](O)CC1=O)[C@H](C)C[C@@H]2OC` (single isomer, unassigned) [Example 62]: the IC50 (Homo sapiens, Lymphocyte) worked out at 29.2 nM.

For `CC[C@@H]1/C=C(\C)C[C@H](C)C[C@H](OC)[C@H]2O[C@@](O)(C(=O)C(=O)N3CCCC[C@H]3C(=O)O[C@H](/C(C)=C/[C@@H]3CC[C@H]([S+]([O-])CCC(=O)OC(C)C)[C@H](OC)C3)[C@H](C)[C@@H](O)CC1=O)[C@H](C)C[C@@H]2OC` (single isomer, unassigned) [Example 65], where the note is “Homo sapiens, Lymphocyte”, the IC50 worked out at 32 nM.

Under “Homo sapiens, Lymphocyte”, `CCC(CC)OC(=O)CC[S+]([O-])[C@H]1CC[C@@H](/C=C(\C)[C@H]2OC(=O)[C@@H]3CCCCN3C(=O)C(=O)[C@]3(O)O[C@H]([C@@H](OC)C[C@@H](C)C/C(C)=C/[C@@H](CC)C(=O)C[C@H](O)[C@H]2C)[C@@H](OC)C[C@H]3C)C[C@H]1OC` (single isomer, unassigned) [Example 67] came in with an IC50 of 25.6 nM.

With `CC[C@@H]1/C=C(\C)C[C@H](C)C[C@H](OC)[C@H]2O[C@@](O)(C(=O)C(=O)N3CCCC[C@H]3C(=O)O[C@H](/C(C)=C/[C@@H]3CC[C@H]([S+]([O-])CCC(=O)N(C)O)[C@H](OC)C3)[C@H](C)[C@@H](O)CC1=O)[C@H](C)C[C@@H]2OC` (single isomer, unassigned) [Example 69], the IC50 (Homo sapiens, Lymphocyte) was found to be 6.24 nM.

Where the note is “Homo sapiens, Lymphocyte”, `CC[C@@H]1/C=C(\C)C[C@H](C)C[C@H](OC)[C@H]2O[C@@](O)(C(=O)C(=O)N3CCCC[C@H]3C(=O)O[C@H](/C(C)=C/[C@@H]3CC[C@H]([S+]([O-])CC(=O)O)[C@H](OC)C3)[C@H](C)[C@@H](O)CC1=O)[C@H](C)C[C@@H]2OC` (single isomer, unassigned) [Example 73] came in with an IC50 of 9.6 nM.

Under “Homo sapiens, Lymphocyte”, `CC[C@@H]1/C=C(\C)C[C@H](C)C[C@H](OC)[C@H]2O[C@@](O)(C(=O)C(=O)N3CCCC[C@H]3C(=O)O[C@H](/C(C)=C/[C@@H]3CC[C@H](SC(=O)C(C)NC(C)=O)[C@H](OC)C3)[C@H](C)[C@@H](O)CC1=O)[C@H](C)C[C@@H]2OC` (single isomer, unassigned) [Example 117A] displayed an IC50 of 2.4 nM.

Regarding `CC[C@@H]1/C=C(\C)C[C@H](C)C[C@H](OC)[C@H]2O[C@@](O)(C(=O)C(=O)N3CCCC[C@H]3C(=O)O[C@H](/C(C)=C/[C@@H]3CC[C@H](SC(=O)C(C)NC(C)=O)[C@H](OC)C3)[C@H](C)[C@@H](O)CC1=O)[C@H](C)C[C@@H]2OC` (single isomer, unassigned) [Example 117B], it took 2.5 nM to reach half-maximal inhibition (IC50).

For `CCC1C=C(C)CC(C)CC(OC)C2OC(O)(C(=O)C(=O)N3CCCCC3C(=O)OC(C(C)=CC3CCC(SC(C)=O)C(OC)C3)C(C)C(O)CC1=O)C(C)CC2OC` (stereo not shown) [Example 2], the IC50 (Homo sapiens, Lymphocyte) was determined as 0.16 nM.

The molecule `CCC1C=C(C)CC(C)CC(OC)C2OC(O)(C(=O)C(=O)N3CCCCC3C(=O)OC(C(C)=CC3CCC(S)C(OC)C3)C(C)C(O)CC1=O)C(C)CC2OC` (stereo not drawn) [Example 8A, 32-epi-Thiol Ascomycin] gave an IC50 (Homo sapiens, Lymphocyte) of 0.75 nM.

`CCC1C=C(C)CC(C)CC(OC)C2OC(O)(C(=O)C(=O)N3CCCCC3C(=O)OC(C(C)=CC3CCC(SCCC(=O)Oc4ccccc4)C(OC)C3)C(C)C(O)CC1=O)C(C)CC2OC` (stereo not shown) [Example 8] yielded an IC50 (Homo sapiens, Lymphocyte) of 1.8 nM.

Regarding `CCC1C=C(C)CC(C)CC(OC)C2OC(O)(C(=O)C(=O)N3CCCCC3C(=O)OC(C(C)=CC3CCC(SCCC(=O)OC)C(OC)C3)C(C)C(O)CC1=O)C(C)CC2OC` (stereo not shown) [Example 9], under “Homo sapiens, Lymphocyte”, the concentration for half-maximal inhibition (IC50) is 8.9 nM.

For the setting “Homo sapiens, Lymphocyte”, `CCOC(=O)CCSC1CCC(C=C(C)C2OC(=O)C3CCCCN3C(=O)C(=O)C3(O)OC(C(OC)CC(C)CC(C)=CC(CC)C(=O)CC(O)C2C)C(OC)CC3C)CC1OC` (stereo not shown) [Example 10] had an IC50 of 3.2 nM.

Consider `CCC1C=C(C)CC(C)CC(OC)C2OC(O)(C(=O)C(=O)N3CCCCC3C(=O)OC(C(C)=CC3CCC(SCCC(=O)OCCOC)C(OC)C3)C(C)C(O)CC1=O)C(C)CC2OC` (stereo not shown) [Example 11], for which it took 2.1 nM to reach half-maximal inhibition (Homo sapiens, Lymphocyte) (IC50).

`CCC1C=C(C)CC(C)CC(OC)C2OC(O)(C(=O)C(=O)N3CCCCC3C(=O)OC(C(C)=CC3CCC(SCCC(=O)OCC(F)(F)F)C(OC)C3)C(C)C(O)CC1=O)C(C)CC2OC` (stereo not shown) [Example 12] returned an IC50 (Homo sapiens, Lymphocyte) of 1.7 nM.

In the case of `CCC1C=C(C)CC(C)CC(OC)C2OC(O)(C(=O)C(=O)N3CCCCC3C(=O)OC(C(C)=CC3CCC(SCCC(=O)OCCO)C(OC)C3)C(C)C(O)CC1=O)C(C)CC2OC` (stereo not shown) [Example 13], for the setting “Homo sapiens, Lymphocyte”, the IC50 stood at 3.1 nM.

Turning to `CCC1C=C(C)CC(C)CC(OC)C2OC(O)(C(=O)C(=O)N3CCCCC3C(=O)OC(C(C)=CC3CCC(SCCC(=O)OC4CCCCC4)C(OC)C3)C(C)C(O)CC1=O)C(C)CC2OC` (stereo not shown) [Example 14], for the setting “Homo sapiens, Lymphocyte”, half-maximal inhibition (IC50) was put at 6.2 nM.

With `CCC1C=C(C)CC(C)CC(OC)C2OC(O)(C(=O)C(=O)N3CCCCC3C(=O)OC(C(C)=CC3CCC(SCCC(=O)OC(C)(C)C)C(OC)C3)C(C)C(O)CC1=O)C(C)CC2OC` (stereo not shown) [Example 15], the IC50 (Homo sapiens, Lymphocyte) stood at 1.5 nM.

In turn, `CCC1C=C(C)CC(C)CC(OC)C2OC(O)(C(=O)C(=O)N3CCCCC3C(=O)OC(C(C)=CC3CCC(SCCC(=O)OCCN(C)C)C(OC)C3)C(C)C(O)CC1=O)C(C)CC2OC` (stereo not shown) [Example 16] gave an IC50 (Homo sapiens, Lymphocyte) of 2.2 nM.

As to `CCC1C=C(C)CC(C)CC(OC)C2OC(O)(C(=O)C(=O)N3CCCCC3C(=O)OC(C(C)=CC3CCC(SCCC(=O)OCCCS(=O)(=O)O)C(OC)C3)C(C)C(O)CC1=O)C(C)CC2OC` (stereo not shown) [Example 17], for the setting “Homo sapiens, Lymphocyte”, the IC50 came out at 31.2 nM.

Consider `CCC1C=C(C)CC(C)CC(OC)C2OC(O)(C(=O)C(=O)N3CCCCC3C(=O)OC(C(C)=CC3CCC(SCCC(=O)O)C(OC)C3)C(C)C(O)CC1=O)C(C)CC2OC` (stereo not shown) [Example 19], for which the IC50 (Homo sapiens, Lymphocyte) is 2.9 nM.

`CCC1C=C(C)CC(C)CC(OC)C2OC(O)(C(=O)C(=O)N3CCCCC3C(=O)OC(C(C)=CC3CCC(SCCC(=O)OC(C)C)C(OC)C3)C(C)C(O)CC1=O)C(C)CC2OC` (stereo not shown) [Example 20] registered an IC50 (Homo sapiens, Lymphocyte) of 12.7 nM.

Where the note is “Homo sapiens, Lymphocyte”, `CCC(CC)OC(=O)CCSC1CCC(C=C(C)C2OC(=O)C3CCCCN3C(=O)C(=O)C3(O)OC(C(OC)CC(C)CC(C)=CC(CC)C(=O)CC(O)C2C)C(OC)CC3C)CC1OC` (stereo not shown) [Example 21] registered an IC50 of 5.4 nM.

Consider `CCC1C=C(C)CC(C)CC(OC)C2OC(O)(C(=O)C(=O)N3CCCCC3C(=O)OC(C(C)=CC3CCC(SCCC(N)=O)C(OC)C3)C(C)C(O)CC1=O)C(C)CC2OC` (stereo not shown) [Example 22], for which the IC50 (Homo sapiens, Lymphocyte) was 0.02 nM.

In turn, `CCC1C=C(C)CC(C)CC(OC)C2OC(O)(C(=O)C(=O)N3CCCCC3C(=O)OC(C(C)=CC3CCC(SCCC(=O)N4CCOCC4)C(OC)C3)C(C)C(O)CC1=O)C(C)CC2OC` (stereo not shown) [Example 23] gave an IC50 (Homo sapiens, Lymphocyte) of 0.04 nM.

As for `CCC1C=C(C)CC(C)CC(OC)C2OC(O)(C(=O)C(=O)N3CCCCC3C(=O)OC(C(C)=CC3CCC(SCCC(=O)NO)C(OC)C3)C(C)C(O)CC1=O)C(C)CC2OC` (stereo not shown) [Example 24], the IC50 (Homo sapiens, Lymphocyte) was 0.8 nM.

`CCC1C=C(C)CC(C)CC(OC)C2OC(O)(C(=O)C(=O)N3CCCCC3C(=O)OC(C(C)=CC3CCC(SCCC(=O)N(C)O)C(OC)C3)C(C)C(O)CC1=O)C(C)CC2OC` (stereo not shown) [Example 25]: the midpoint of inhibition (Homo sapiens, Lymphocyte), the IC50, lay at 0.2 nM.

In turn, `CCC1C=C(C)CC(C)CC(OC)C2OC(O)(C(=O)C(=O)N3CCCCC3C(=O)OC(C(C)=CC3CCC(SCCC(=O)N(O)C(C)C)C(OC)C3)C(C)C(O)CC1=O)C(C)CC2OC` (stereo not shown) [Example 26] yielded an IC50 (Homo sapiens, Lymphocyte) of 7 nM.

As for `CCC1C=C(C)CC(C)CC(OC)C2OC(O)(C(=O)C(=O)N3CCCCC3C(=O)OC(C(C)=CC3CCC(SCC(=O)OCc4ccccc4)C(OC)C3)C(C)C(O)CC1=O)C(C)CC2OC` (stereo not shown) [Example 27], the IC50 (Homo sapiens, Lymphocyte) was determined as 3.7 nM.

For the molecule `CCC1C=C(C)CC(C)CC(OC)C2OC(O)(C(=O)C(=O)N3CCCCC3C(=O)OC(C(C)=CC3CCC(SCC(=O)OC)C(OC)C3)C(C)C(O)CC1=O)C(C)CC2OC` (stereo not shown) [Example 28], where the note is “Homo sapiens, Lymphocyte”, the IC50 is 1.6 nM.

Molecule `CCC1C=C(C)CC(C)CC(OC)C2OC(O)(C(=O)C(=O)N3CCCCC3C(=O)OC(C(C)=CC3CCC(SCC(=O)OC(C)(C)C)C(OC)C3)C(C)C(O)CC1=O)C(C)CC2OC` (stereo not shown) [Example 29] gave a half-maximal inhibitory concentration (IC50) (Homo sapiens, Lymphocyte) of 1.8 nM.

In the case of `CCC1C=C(C)CC(C)CC(OC)C2OC(O)(C(=O)C(=O)N3CCCCC3C(=O)OC(C(C)=CC3CCC(SCC(=O)O)C(OC)C3)C(C)C(O)CC1=O)C(C)CC2OC` (stereo not shown) [Example 30], inhibition (Homo sapiens, Lymphocyte) was half-maximal at 9.1 nM (IC50).

On to `CCOC(=O)CSC1CCC(C=C(C)C2OC(=O)C3CCCCN3C(=O)C(=O)C3(O)OC(C(OC)CC(C)CC(C)=CC(CC)C(=O)CC(O)C2C)C(OC)CC3C)CC1OC` (stereo not shown) [Example 31], for which half-maximal inhibition (Homo sapiens, Lymphocyte) (IC50) required 8.2 nM.

For `CCC1C=C(C)CC(C)CC(OC)C2OC(O)(C(=O)C(=O)N3CCCCC3C(=O)OC(C(C)=CC3CCC(SCC(=O)OC(C)C)C(OC)C3)C(C)C(O)CC1=O)C(C)CC2OC` (stereo not shown) [Example 32], for the setting “Homo sapiens, Lymphocyte”, the IC50 was determined as 6.5 nM.

As for `CCC1C=C(C)CC(C)CC(OC)C2OC(O)(C(=O)C(=O)N3CCCCC3C(=O)OC(C(C)=CC3CCC(SCC(=O)OCC(F)(F)F)C(OC)C3)C(C)C(O)CC1=O)C(C)CC2OC` (stereo not shown) [Example 33], 47 nM corresponded to half-maximal inhibition (Homo sapiens, Lymphocyte) (IC50).

`CCC1C=C(C)CC(C)CC(OC)C2OC(O)(C(=O)C(=O)N3CCCCC3C(=O)OC(C(C)=CC3CCC(SCC(=O)OCCO)C(OC)C3)C(C)C(O)CC1=O)C(C)CC2OC` (stereo not shown) [Example 34]: the IC50 (Homo sapiens, Lymphocyte) worked out at 60.8 nM.

Where the note is “Homo sapiens, Lymphocyte”, `CCC1C=C(C)CC(C)CC(OC)C2OC(O)(C(=O)C(=O)N3CCCCC3C(=O)OC(C(C)=CC3CCC(SCC(=O)OCCOC)C(OC)C3)C(C)C(O)CC1=O)C(C)CC2OC` (stereo not shown) [Example 35] gave an IC50 of 27.1 nM.
